Experimental data as given in patent publication US20240158446A1, “CYCLIC COMPOUND HAVING SELECTIVE INHIBITORY ACTION ON KRAS OVER HRAS AND NRAS” (CHUGAI SEIYAKU KABUSHIKI KAISHA, priority 2021, published 2024).
Read-outs that look alike come from different tables or passages of the source. *1 amine or outer side, *2 acyl side, *3 side chain or, on linkers, in order; H or OH if unused. Where a SMILES comes first, the peptide text is derived from it. Bridges are numbered along the chain shown (N, C = ends). [ ]: non-standard residue; d: D form. The star is where a group is joined. hPhe(3-Cl-4-CF3) = N[C@@H](CCc1ccc(C(F)(F)F)c(Cl)c1)C(=O)O; NPrPhe(4-CF3) = CCCN[C@@H](Cc1ccc(C(F)(F)F)cc1)C(=O)O; NMeGly(cPent) = CN[C@H](C(=O)O)C1CCCC1; Pro(4,4-F2) = O=C(O)[C@@H]1CC(F)(F)CN1; NMeD = CN[C@@H](CC(=O)O)C(=O)O; NMeL = CN[C@@H](CC(C)C)C(=O)O; X12 = N#CCN(CC(=O)[*:2])[*:1]; Morpholide = C1CN(*)CCO1; NMeA = CN[C@@H](C)C(=O)O; Ac5c = NC1(C(=O)O)CCCC1; Aze = O=C(O)[C@@H]1CCN1; Sar = CNCC(=O)O

Experiments:
[1] = target: GDP-bound KRAS wild-type protein (Homo sapiens, UniProt P01116); assay: Binding to KRAS by surface plasmon resonance (SPR), Single Cycle Kinetics; details: GDP-bound KRAS wild-type protein, read-out: KRAS KD
[2] = target: GDP-bound NRAS wild-type protein (Homo sapiens, UniProt P01111); assay: Binding to NRAS by surface plasmon resonance (SPR), Single Cycle Kinetics; details: SPR, GDP-bound NRAS wild-type protein vs GDP-bound KRAS wild-type protein
[3] = target: GDP-bound HRAS wild-type protein (Homo sapiens, UniProt P01112); assay: Binding to HRAS by surface plasmon resonance (SPR), Single Cycle Kinetics; details: SPR, GDP-bound HRAS wild-type protein vs GDP-bound KRAS wild-type protein
[4] = SPR Single Cycle Kinetics, 1:1 binding model

Sequence of GDP-bound NRAS wild-type protein (P01111 whole entry): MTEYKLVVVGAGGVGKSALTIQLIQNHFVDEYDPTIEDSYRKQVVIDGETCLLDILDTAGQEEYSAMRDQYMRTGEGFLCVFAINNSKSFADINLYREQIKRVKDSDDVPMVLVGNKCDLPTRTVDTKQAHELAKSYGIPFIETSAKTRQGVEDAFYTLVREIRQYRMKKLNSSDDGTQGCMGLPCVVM
Sequence of GDP-bound HRAS wild-type protein (P01112 whole entry): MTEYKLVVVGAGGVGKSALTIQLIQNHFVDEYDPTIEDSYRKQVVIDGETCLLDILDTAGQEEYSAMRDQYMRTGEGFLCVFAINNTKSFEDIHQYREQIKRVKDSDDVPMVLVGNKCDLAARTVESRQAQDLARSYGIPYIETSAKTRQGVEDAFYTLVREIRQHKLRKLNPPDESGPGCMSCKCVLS
Sequence of GDP-bound KRAS wild-type protein (P01116 whole entry): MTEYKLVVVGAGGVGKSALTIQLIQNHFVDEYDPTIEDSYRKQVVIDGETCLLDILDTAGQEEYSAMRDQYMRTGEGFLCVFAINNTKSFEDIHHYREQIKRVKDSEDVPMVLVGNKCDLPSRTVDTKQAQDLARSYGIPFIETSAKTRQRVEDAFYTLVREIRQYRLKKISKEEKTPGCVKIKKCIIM

Structure (SMILES)	Kd [1, 4] [nM]	Kd ([1]; SPR, Single Cycle Kinetics) [nM]	NRAS/KRAS (ratio of KD value with respect to NRAS to KD value with respect to KRAS) [2]	HRAS/KRAS (ratio of KD value with respect to HRAS to KD value with respect to KRAS) [3]	NRAS/KRAS (ratio of KD value for NRAS to KD value for KRAS) [2]	HRAS/KRAS (ratio of KD value for HRAS to KD value for KRAS) [3]
CC[C@H](C)[C@@H]1NC(=O)[C@H](CC(C)C)N(C)C(=O)C[C@@H](C(=O)N2CCOCC2)N(C)C(=O)[C@H](C2CCCC2)N(C)C(=O)C2(CCCCC2)NC(=O)[C@@H]2CCCN2C(=O)[C@H](CCc2cc(F)c(C(F)(F)F)c(F)c2)NC(=O)CN(C)C(=O)[C@H](Cc2ccc(C(F)(F)F)cc2)N2CCCCC[C@@H](C2=O)N(C)C(=O)CN(C)C1=O [PP0498]	18	–	B (a compound having 3 or more and less than 10 is denoted as B)	B (a compound having 3 or more and less than 10 is denoted as B)	–	–
CCCN1C(=O)CN(C)C(=O)CN(CC#N)C(=O)[C@H]([C@@H](C)CC)NC(=O)[C@H](CC(C)C)N(C)C(=O)C[C@@H](C(=O)N2CCOCC2)N(C)C(=O)[C@H](C2CCCC2)N(C)C(=O)C2(CCCC2)NC(=O)[C@@H]2CCCN2C(=O)[C@H](CCc2ccc(C(F)(F)F)c(Cl)c2)NC(=O)CN(C)C(=O)[C@@H]1Cc1ccc(C(F)(F)F)cc1 [PP0254] ([NMeL]I[X12][Sar][NPrPhe(4-CF3)][Sar][hPhe(3-Cl-4-CF3)]P[Ac5c][NMeGly(cPent)][NMeD]-Morpholide; lactam N-11)	0.16	–	–	–	B (a compound having 3 or more and less than 10 is denoted as B)	C (A compound having a KD ratio of 0.1 or more and less than 3 is denoted as C)
CCCN1C(=O)[C@@H]2CCN2C(=O)[C@H](C)N(C)C(=O)[C@H]([C@@H](C)CC)NC(=O)[C@H](CC(C)C)N(C)C(=O)C[C@@H](C(=O)N2CCOCC2)N(C)C(=O)[C@H](C2CCCC2)N(C)C(=O)C2(CCCC2)NC(=O)[C@@H]2CC(F)(F)CN2C(=O)[C@H](CCc2ccc(C(F)(F)F)c(Cl)c2)NC(=O)CN(C)C(=O)[C@@H]1Cc1ccc(C(F)(F)F)cc1 [PP0196] ([NMeL]I[NMeA][Aze][NPrPhe(4-CF3)][Sar][hPhe(3-Cl-4-CF3)][Pro(4,4-F2)][Ac5c][NMeGly(cPent)][NMeD]-Morpholide; lactam N-11)	0.15	–	–	–	C (A compound having a KD ratio of 0.1 or more and less than 3 is denoted as C)	C (A compound having a KD ratio of 0.1 or more and less than 3 is denoted as C)

Further lines, with some results ahead:

Kd [1, 4] [nM]	Kd ([1]; SPR, Single Cycle Kinetics) [nM]	Structure (SMILES)	NRAS/KRAS (ratio of KD value with respect to NRAS to KD value with respect to KRAS) [2]	HRAS/KRAS (ratio of KD value with respect to HRAS to KD value with respect to KRAS) [3]	NRAS/KRAS (ratio of KD value for NRAS to KD value for KRAS) [2]	HRAS/KRAS (ratio of KD value for HRAS to KD value for KRAS) [3]
–	0.33	CCO[C@@H]1C[C@H]2C(=O)NC3(CC(C)(C)C3)C(=O)N(C)[C@@H](C(CC)CC)C(=O)N(C)[C@H](C(=O)N(C)C)CC(=O)N(C)[C@@H](CC)C(=O)N[C@@H]([C@@H](C)CC)C(=O)N(C)CC(=O)N(C)[C@H]3C/C=C\CCN(C3=O)[C@@H](Cc3ccc(C)cc3)C(=O)N(C)CC(=O)N[C@@H](CCc3ccc(C(F)(F)F)c(OC)c3)C(=O)N2C1 [PP2170]	–	–	A (a compound having 10 or more and less than 20 is denoted as A)	A (a compound having 10 or more and less than 20 is denoted as A)
–	0.058	CCO[C@@H]1C[C@H]2C(=O)NC3(CCC3)C(=O)N(C)[C@@H](C3CCCC3)C(=O)N(C)[C@H](C(=O)N(C)C)CC(=O)N(C)[C@@H](CC)C(=O)N[C@@H]([C@@H](C)CC)C(=O)N(C)CC(=O)N(C)[C@H]3C[C@H]4C[C@H]4CN(C3=O)[C@@H](Cc3ccc(C(F)(F)F)cc3)C(=O)N(C)CC(=O)N[C@@H](CCc3cc(F)c(C(F)(F)F)c(F)c3)C(=O)N2C1 [PP0830]	–	–	C (A compound having a KD ratio of 0.1 or more and less than 3 is denoted as C)	C (A compound having a KD ratio of 0.1 or more and less than 3 is denoted as C)
–	0.04	CCO[C@@H]1C[C@H]2C(=O)NC3(CC(C)(C)C3)C(=O)N(C)[C@@H](C3CCCC3)C(=O)N(C)[C@H](C(=O)N(C)C)CC(=O)N(C)[C@@H](CC)C(=O)N[C@@H]([C@@H](C)CC)C(=O)N(C)CC(=O)N(C)[C@H]3C/C=C\CCN(C3=O)[C@@H](Cc3ccc(C(F)F)cc3)C(=O)N(C)CC(=O)N[C@@H](CCc3cc(F)c(C(F)(F)F)c(F)c3)C(=O)N2C1 [PP2049]	–	–	A (a compound having 10 or more and less than 20 is denoted as A)	B (a compound having 3 or more and less than 10 is denoted as B)
